Values quoted from earlier work, collected in patent publication US20180136238A1 (priority 2016, published 2018).
Like-named read-outs stand apart in the source and are kept apart here.

How the values were obtained:
[1] = in vivo
[2] = blood, equilibrium of bicarbonate complex with protein bound uranyl ions

## [U] [uranium]
[2]
  uranium in blood bicarbonate-formed: 60%
  uranium in blood protein-formed: 40%
Other studies
  uranium in blood associated with red blood cells: 20%
  uranium in blood present in the inorganic compartment of plasma: 74%
  uranium in blood protein-formed: 32%

## [CH3][Hg][CH3] [dimethyl mercury]
[1]
  LD50 dose: 0.015 mg/kg

## [Hg+2].[S-2] [mercuric sulfide]
[1]
  LD50 dose: ~100,000.0 mg/kg

## arsenic
[1]
  LD50 dose: 14 mg/kg
